Nine compounds from PubChem BioAssay (NCI) can be followed below.

Among the test systems are A549 NSCLC; BT-549 breast; CCRF-CEM leukemia; DU-145 prostate; HL-60(TB) leukemia; K-562 leukemia; KM12 colon; NCI-H23 lung; SK-MEL-28 melanoma; SR leukemia.
What all share (assay): NCI anticancer screen, dose series, 48 h

“And” between values parts separate entries of the source, which are not always exact repeats. Equal values may be shown once.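 Five concentrations, 48 hours, 96-well plates. GI50: concentration for 50% inhibition of growth. TGI denotes the concentration required for complete inhibition of growth.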 Where only a bound is given, the exact number is not on record here.

For `CCOC(=O)c1ccc(-n2cnc(-c3ccc([N+](=O)[O-])cc3)c2)cc1`, the TGI with A549 NSCLC, with BT-549 breast, in the assay with CCRF-CEM leukemia, in the assay with DU-145 prostate, in the assay with HL-60(TB) leukemia and with K-562 leukemia was over 100 µM each time. Further, the TGI with KM12 colon, in the assay on NCI-H23 lung, in the assay on SK-MEL-28 melanoma and in the assay on SR leukemia was over 100 µM in each case.

As to `CC1(C)Oc2ccc3ccc(=O)oc3c2C(O)C1O` (stereo not given), the TGI is over 100 µM in the assay on A549 NSCLC; 60.9 µM with BT-549 breast; 96.9 µM in the assay on CCRF-CEM leukemia; over 100 µM with DU-145 prostate; over 100 µM with HL-60(TB) leukemia; over 100 µM with K-562 leukemia. For the same compound, the TGI with KM12 colon, in the assay on NCI-H23 lung, in the assay with SK-MEL-28 melanoma and in the assay on SR leukemia was over 100 µM each time.

`CCSC[C@@H]1C[C@](O)(c2ccc(Cl)cc2)[C@@H](c2ccc(Cl)cc2)O1`: the GI50 in the assay on A549 NSCLC is 17.3 µM; in the assay on BT-549 breast it was 15.2 µM; in the assay with CCRF-CEM leukemia, 20.5 µM; with DU-145 prostate it was 15 µM; in the assay with HL-60(TB) leukemia, 15.2 µM; in the assay with K-562 leukemia, 18.8 µM. Moreover, the GI50 in the assay on KM12 colon was 15.4 µM; in the assay with NCI-H23 lung, 19.3 µM; in the assay with SK-MEL-28 melanoma, 16.2 µM; with SR leukemia, 11.1 µM. Moreover, the TGI with A549 NSCLC is 33.2 µM; with BT-549 breast, 28.9 µM; in the assay on CCRF-CEM leukemia, 59.4 µM; with DU-145 prostate, 30 µM; in the assay with HL-60(TB) leukemia, 36 µM; in the assay with K-562 leukemia, 44.2 µM. For the same compound, the TGI is 30.9 µM in the assay on KM12 colon, 41.6 µM in the assay with NCI-H23 lung, 32.8 µM with SK-MEL-28 melanoma and 28.2 µM in the assay with SR leukemia.

In the case of `COc1cc(-c2nn(-c3cccc(NC(=O)Nc4ccc(Cl)c(C(F)(F)F)c4)c3)cc2-c2ccncc2)ccc1Cl`, the GI50 is 1.02 µM with A549 NSCLC; 2.36 µM in the assay with BT-549 breast; 0.979 µM with CCRF-CEM leukemia; 1.5 µM in the assay with DU-145 prostate; 1.17 µM in the assay on HL-60(TB) leukemia; 1.21 µM in the assay with K-562 leukemia. Further, the GI50 with KM12 colon was 1.06 µM; in the assay on NCI-H23 lung it was 1.13 µM; with SK-MEL-28 melanoma, 1.2 µM; in the assay with SR leukemia, 0.884 µM. The TGI in the assay on A549 NSCLC was 16.7 µM; in the assay with BT-549 breast, 10.2 µM; in the assay with CCRF-CEM leukemia, over 32.5 µM; in the assay on DU-145 prostate it was over 32.5 µM; with HL-60(TB) leukemia, over 32.5 µM; in the assay on K-562 leukemia it was over 32.5 µM. Also, the TGI with KM12 colon was 3.91 µM; in the assay with NCI-H23 lung, 8.02 µM; in the assay on SK-MEL-28 melanoma, 5.01 µM; in the assay on SR leukemia it was 2.48 µM.

Take `O=C1C2CCN(CC2)C1CN1CCOCC1` (stereo not given): the TGI in the assay with A549 NSCLC was 37.5 µM; with BT-549 breast, 4.53 µM; with CCRF-CEM leukemia, over 23.8 µM; in the assay on DU-145 prostate it was 20.1 µM; in the assay with HL-60(TB) leukemia it was over 100 µM; in the assay on K-562 leukemia, 20.3 µM. The TGI in the assay on KM12 colon turned out to be 30.8 µM; in the assay on NCI-H23 lung, 23.9 µM; in the assay on SK-MEL-28 melanoma, 10.6 µM; with SR leukemia, 35.5 µM.

As to `OC1CC2CCC(C1)N2CCCN1c2ccccc2Sc2ccc(Cl)cc21` (stereo not given), the TGI with A549 NSCLC was determined as 7.45 µM; in the assay on BT-549 breast it was 10.7 µM; in the assay with CCRF-CEM leukemia, 4.23 µM; in the assay on DU-145 prostate, 9.35 µM; in the assay on HL-60(TB) leukemia, 6.37 µM; with K-562 leukemia it was 4.61 µM. The TGI with KM12 colon was found to be 4.08 µM; in the assay on NCI-H23 lung, 8.12 µM; with SK-MEL-28 melanoma, 3.69 µM; with SR leukemia, 5.34 µM.

As for `COc1ccc(Br)cc1NC(=O)Nc1cccc2c1ccn2Cc1ccnc(N)c1`, the GI50 with A549 NSCLC was 5.64 µM and > 10 µM; in the assay with BT-549 breast, 11.7 µM and > 10 µM; in the assay with CCRF-CEM leukemia, 3.92 µM and 5.43 µM; in the assay with DU-145 prostate, 7.86 µM and > 10 µM; with HL-60(TB) leukemia it was 4.69 µM and 3.6 µM; with K-562 leukemia it was 2.41 µM and 2.75 µM. Besides, the GI50 is 2.57 µM and 4.27 µM in the assay on KM12 colon; 14.5 µM and > 10 µM in the assay on NCI-H23 lung; 11.5 µM and > 10 µM with SK-MEL-28 melanoma; 2.51 µM and 3.11 µM in the assay on SR leukemia. The TGI is 22.7 µM and > 10 µM with A549 NSCLC; 38.6 µM and > 10 µM with BT-549 breast; 40 µM and > 10 µM in the assay with CCRF-CEM leukemia; 37.9 µM and > 10 µM in the assay on DU-145 prostate; 20.8 µM and > 10 µM with HL-60(TB) leukemia; 8.38 µM and > 10 µM with K-562 leukemia. Further, the TGI with KM12 colon was 8.23 µM and > 10 µM; with NCI-H23 lung, 40.7 µM and > 10 µM; in the assay with SK-MEL-28 melanoma, 24.8 µM and > 10 µM; in the assay with SR leukemia, 15.5 µM and > 10 µM.

As for `Cc1ccc2c(C(C[N+](=O)[O-])c3ccccc3)c(-c3ccccc3)[nH]c2c1` (stereo not given), the GI50 in the assay on A549 NSCLC was 18 µM; in the assay with BT-549 breast, 34 µM; in the assay on CCRF-CEM leukemia, 25.2 µM; in the assay with DU-145 prostate, 34 µM; in the assay with HL-60(TB) leukemia, 22.6 µM; in the assay on K-562 leukemia, 7.14 µM. The GI50 in the assay with KM12 colon was 21.6 µM; with NCI-H23 lung it was 47 µM; in the assay on SK-MEL-28 melanoma, over 95 µM; in the assay on SR leukemia, 4.54 µM. The TGI was over 95 µM with A549 NSCLC; over 95 µM with BT-549 breast; over 95 µM in the assay on CCRF-CEM leukemia; over 95 µM in the assay with DU-145 prostate; 57.2 µM in the assay on HL-60(TB) leukemia; over 95 µM in the assay on K-562 leukemia. Besides, the TGI in the assay on KM12 colon, in the assay on NCI-H23 lung, in the assay on SK-MEL-28 melanoma and in the assay with SR leukemia was over 95 µM in each case.

As for `CN(C)c1ccc(/C=N/NC(N)=S)nc1`, the GI50 in the assay with A549 NSCLC was 4.61 µM; in the assay with BT-549 breast, 4.39 µM; with CCRF-CEM leukemia, 2.82 µM; with DU-145 prostate it was 2.45 µM; in the assay with HL-60(TB) leukemia, 1.8 µM; with K-562 leukemia, 4.54 µM. In addition, the GI50 was 3.49 µM in the assay with KM12 colon, 2.39 µM with NCI-H23 lung, 17.9 µM in the assay on SK-MEL-28 melanoma and 2.73 µM in the assay on SR leukemia. For the same compound, the TGI with A549 NSCLC is over 100 µM; in the assay with BT-549 breast, over 100 µM; in the assay on CCRF-CEM leukemia, 21.8 µM; with DU-145 prostate it was 16.3 µM; with HL-60(TB) leukemia it was 37.9 µM; in the assay on K-562 leukemia, over 100 µM. In addition, the TGI in the assay on KM12 colon, in the assay with NCI-H23 lung, with SK-MEL-28 melanoma and in the assay with SR leukemia was over 100 µM in each case.
